The source made the active and inactive calls. No cut-off for these calls is given here.
Assays:
[1] = biological target: T1, Glucagon-like peptide 1 receptor (Homo sapiens, UniProt P43220); experiment: Agonist activity at N-terminal HA-tagged human GLP-1R expressed in HEK293 cells assessed as effect on intracellular cAMP accumulation incubated for 30 mins by LANCA ultra cAMP assay; type: functional, cell-based
[2] = Stability in human liver microsomes assessed as half-life at 1 uM measured upto 60 mins in the presence of NADPH by LC-MS/MS analysis; type: ADME, Microsome
[3] = Stability in mouse liver microsomes assessed as half-life at 1 uM measured upto 60 mins in the presence of NADPH by LC-MS/MS analysis; type: ADME, Microsome
[4] = Stability in rat liver microsomes assessed as half-life at 1 uM measured upto 60 mins in the presence of NADPH by LC-MS/MS analysis; type: ADME, Microsome
[5] = Stability in rat liver microsomes assessed as intrinsic clearance at 1 uM measured upto 60 mins in the presence of NADPH by LC-MS/MS analysis; type: ADME, Microsome; settings: 1 h
[6] = Stability in mouse liver microsomes assessed as intrinsic clearance at 1 uM measured upto 60 mins in the presence of NADPH by LC-MS/MS analysis; type: ADME, Microsome; settings: 1 h
[7] = Stability in human liver microsomes assessed as intrinsic clearance at 1 uM measured upto 60 mins in the presence of NADPH by LC-MS/MS analysis; type: ADME, Microsome; settings: 1 h
hERG (KCNH2) [8] = biological target: T2, hERG (KCNH2) (Homo sapiens, UniProt Q12809); experiment: Inhibition of hERG at 3 uM relative to control
[9] = biological target: T3, Glucagon-like peptide 1 receptor (Mus musculus) (UniProt O35659); experiment: Activation of mouse GLP-1R
T3 sequence (whole entry): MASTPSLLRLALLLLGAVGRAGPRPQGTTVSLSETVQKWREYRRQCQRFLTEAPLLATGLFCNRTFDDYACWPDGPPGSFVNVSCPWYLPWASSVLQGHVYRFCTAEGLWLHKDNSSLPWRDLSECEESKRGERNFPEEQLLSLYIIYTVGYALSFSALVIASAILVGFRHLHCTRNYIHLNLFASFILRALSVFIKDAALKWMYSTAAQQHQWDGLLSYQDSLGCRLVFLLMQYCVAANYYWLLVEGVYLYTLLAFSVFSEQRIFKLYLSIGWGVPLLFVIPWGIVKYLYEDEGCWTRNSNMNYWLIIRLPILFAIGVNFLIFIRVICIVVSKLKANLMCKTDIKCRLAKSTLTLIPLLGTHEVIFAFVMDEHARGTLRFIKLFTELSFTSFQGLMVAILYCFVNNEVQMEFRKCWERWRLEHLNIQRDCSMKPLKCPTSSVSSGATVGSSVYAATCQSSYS

hERG (KCNH2) [10] = biological target: T2, hERG (KCNH2); experiment: Inhibition of hERG at 40 uM relative to control
Mus musculus [11] = experiment: (§1) In vivo agonist activity at GLP-1R in C57BL/6J mouse with human GLP-1R knock-in assessed as reduction in blood glucose level at 1 mg/kg, po pre-treated with compound for 1 hrs followed by glucose administration and measured upto 90 mins by Oral Glucose Tolerance Test; type: functional, organism-based; settings: time <= 150.0 min
Mus musculus [12] = experiment: In vivo agonist activity at GLP-1R in C57BL/6J mouse with human GLP-1R knock-in assessed as reduction in food intake at 30 mg/kg, sc measured after 2.5 to 12 hrs in dark cycle; type: functional, organism-based; settings: time 2.5-12 hrs
[13] = biological target: T1, Glucagon-like peptide 1 receptor; experiment: Agonist activity at N-terminal HA-tagged human GLP-1R expressed in HEK293 cells assessed as change in intracellular calcium level by Fluo-4 AM dye based calcium mobilization assay; type: functional, cell-based
[14] = biological target: T1, Glucagon-like peptide 1 receptor; experiment: (§2) Potency index, ratio of danuglipron EC50 to test compound EC50 for partial agonist activity at N-terminal HA-tagged human GLP-1R expressed in HEK293 cells co-expressing Smbit-beta-arrestin 1/2 and GLP-1R-LgBit assessed as beta-arrestin-1 recruitment measured after 5 mins by bioluminescence based NanoBiT assay; type: functional, cell-based
[15] = biological target: Glucagon receptor (Homo sapiens) (UniProt P47871); experiment: Agonist activity at GCGR (unknown origin) expressed in HEK293 cells assessed as effect on intracellular cAMP accumulation incubated for 30 mins by LANCA ultra cAMP assay; type: functional, cell-based
[16] = biological target: T1, Glucagon-like peptide 1 receptor; experiment: Partial agonist activity at N-terminal HA-tagged human GLP-1R expressed in HEK293 cells co-expressing Smbit-beta-arrestin 1/2 and GLP-1R-LgBit assessed as beta-arrestin-2 recruitment measured after 5 mins by bioluminescence based NanoBiT assay; type: functional, cell-based
[17] = AUClast in Sprague-Dawley rat at 5 mg/kg, po measured upto 24 hrs by LC-MS/MS analysis; type: ADME, organism-based; parameters: dose 5 mg/kg, time < 24 hrs, route po; settings: in vivo
[18] = Apparent permeability across apical to basolateral side in human Caco-2 cells at 10 uM measured after 95 mins by LC-MS/MS analysis; type: ADME, cell-based
[19] = biological target: T4, Glucagon-like peptide 2 receptor (Homo sapiens) (UniProt O95838); experiment: Agonist activity at GLP-2R (unknown origin) expressed in HEK293 cells assessed as effect on intracellular cAMP accumulation incubated for 30 mins by LANCA ultra cAMP assay; type: functional, cell-based
T4 sequence (whole entry): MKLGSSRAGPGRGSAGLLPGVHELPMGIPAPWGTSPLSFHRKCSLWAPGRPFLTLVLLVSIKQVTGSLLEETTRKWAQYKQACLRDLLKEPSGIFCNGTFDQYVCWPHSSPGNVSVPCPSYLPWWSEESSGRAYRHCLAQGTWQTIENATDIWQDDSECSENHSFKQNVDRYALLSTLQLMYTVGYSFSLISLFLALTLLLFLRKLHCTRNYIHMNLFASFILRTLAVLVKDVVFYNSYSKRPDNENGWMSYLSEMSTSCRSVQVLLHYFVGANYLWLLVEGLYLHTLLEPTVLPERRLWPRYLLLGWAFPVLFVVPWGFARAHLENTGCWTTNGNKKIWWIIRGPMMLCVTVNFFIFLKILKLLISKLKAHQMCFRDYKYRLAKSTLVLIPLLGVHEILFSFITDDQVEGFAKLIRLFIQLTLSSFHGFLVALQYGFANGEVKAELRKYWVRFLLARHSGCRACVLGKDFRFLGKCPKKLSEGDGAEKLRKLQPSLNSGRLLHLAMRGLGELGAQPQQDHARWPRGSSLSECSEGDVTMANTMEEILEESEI

[20] = biological target: T1, Glucagon-like peptide 1 receptor; experiment: Potency index, ratio of danuglipron EC50 to test compound EC50 for agonist activity at N-terminal HA-tagged human GLP-1R expressed in HEK293 cells assessed as change in intracellular calcium level by Fluo-4 AM dye based calcium mobilization assay; type: functional, cell-based
[21] = biological target: T1, Glucagon-like peptide 1 receptor; experiment: Partial agonist activity at N-terminal HA-tagged human GLP-1R expressed in HEK293 cells co-expressing Smbit-beta-arrestin 1/2 and GLP-1R-LgBit assessed as beta-arrestin-1 recruitment measured after 5 mins by bioluminescence based NanoBiT assay; type: functional, cell-based
[22] = Tmax in Sprague-Dawley rat at 5 mg/kg, po measured upto 24 hrs by LC-MS/MS analysis; type: ADME, organism-based; settings: in vivo
[23] = Half-life in Sprague-Dawley rat at 5 mg/kg, po measured upto 24 hrs by LC-MS/MS analysis; type: ADME, organism-based; settings: in vivo
[24] = Drug concentration in C57BL/6J mouse plasma at 5 mg/kg, po measured after 1 hrs by LC-MS/MS analysis; type: ADME, organism-based
[25] = Cmax in Sprague-Dawley rat at 5 mg/kg, po measured upto 24 hrs by LC-MS/MS analysis; type: ADME, organism-based; parameters: time < 24 hrs, dose 5 mg/kg, route po; settings: in vivo
[26] = Drug concentration in C57BL/6J mouse plasma at 5 mg/kg, po measured after 4 hrs by LC-MS/MS analysis; type: ADME, organism-based
[27] = biological target: T5, Gastric inhibitory polypeptide receptor (Homo sapiens) (UniProt P48546); experiment: Agonist activity at GIPR (unknown origin) expressed in HEK293 cells assessed as effect on intracellular cAMP accumulation incubated for 30 mins by LANCA ultra cAMP assay; type: functional, cell-based
T5 sequence (whole entry): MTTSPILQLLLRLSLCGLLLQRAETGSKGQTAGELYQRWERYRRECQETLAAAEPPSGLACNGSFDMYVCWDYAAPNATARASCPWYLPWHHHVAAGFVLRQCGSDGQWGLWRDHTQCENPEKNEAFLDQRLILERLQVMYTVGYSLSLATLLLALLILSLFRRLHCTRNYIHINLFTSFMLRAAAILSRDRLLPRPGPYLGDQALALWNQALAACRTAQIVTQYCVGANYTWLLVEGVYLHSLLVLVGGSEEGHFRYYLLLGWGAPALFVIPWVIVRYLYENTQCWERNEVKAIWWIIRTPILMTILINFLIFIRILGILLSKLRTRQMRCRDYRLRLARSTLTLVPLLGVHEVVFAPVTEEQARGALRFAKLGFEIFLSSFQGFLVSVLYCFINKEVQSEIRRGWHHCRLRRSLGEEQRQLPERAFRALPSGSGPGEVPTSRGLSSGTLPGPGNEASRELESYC

[28] = biological target: Voltage-gated inwardly rectifying potassium channel KCNH2 (Homo sapiens, UniProt Q12809); experiment: Inhibition of hERG
Mus musculus [29] = experiment: as §1, with “administration for 3 hrs and further treated with second glucose dose” for “administration”, “270” for “90”; type: functional, organism-based; settings: time <= 330.0 min
[30] = biological target: T1, Glucagon-like peptide 1 receptor; experiment: as §2, with “beta-arrestin-2” for “beta-arrestin-1”; type: functional, cell-based

T2 sequence (Q12809 whole entry): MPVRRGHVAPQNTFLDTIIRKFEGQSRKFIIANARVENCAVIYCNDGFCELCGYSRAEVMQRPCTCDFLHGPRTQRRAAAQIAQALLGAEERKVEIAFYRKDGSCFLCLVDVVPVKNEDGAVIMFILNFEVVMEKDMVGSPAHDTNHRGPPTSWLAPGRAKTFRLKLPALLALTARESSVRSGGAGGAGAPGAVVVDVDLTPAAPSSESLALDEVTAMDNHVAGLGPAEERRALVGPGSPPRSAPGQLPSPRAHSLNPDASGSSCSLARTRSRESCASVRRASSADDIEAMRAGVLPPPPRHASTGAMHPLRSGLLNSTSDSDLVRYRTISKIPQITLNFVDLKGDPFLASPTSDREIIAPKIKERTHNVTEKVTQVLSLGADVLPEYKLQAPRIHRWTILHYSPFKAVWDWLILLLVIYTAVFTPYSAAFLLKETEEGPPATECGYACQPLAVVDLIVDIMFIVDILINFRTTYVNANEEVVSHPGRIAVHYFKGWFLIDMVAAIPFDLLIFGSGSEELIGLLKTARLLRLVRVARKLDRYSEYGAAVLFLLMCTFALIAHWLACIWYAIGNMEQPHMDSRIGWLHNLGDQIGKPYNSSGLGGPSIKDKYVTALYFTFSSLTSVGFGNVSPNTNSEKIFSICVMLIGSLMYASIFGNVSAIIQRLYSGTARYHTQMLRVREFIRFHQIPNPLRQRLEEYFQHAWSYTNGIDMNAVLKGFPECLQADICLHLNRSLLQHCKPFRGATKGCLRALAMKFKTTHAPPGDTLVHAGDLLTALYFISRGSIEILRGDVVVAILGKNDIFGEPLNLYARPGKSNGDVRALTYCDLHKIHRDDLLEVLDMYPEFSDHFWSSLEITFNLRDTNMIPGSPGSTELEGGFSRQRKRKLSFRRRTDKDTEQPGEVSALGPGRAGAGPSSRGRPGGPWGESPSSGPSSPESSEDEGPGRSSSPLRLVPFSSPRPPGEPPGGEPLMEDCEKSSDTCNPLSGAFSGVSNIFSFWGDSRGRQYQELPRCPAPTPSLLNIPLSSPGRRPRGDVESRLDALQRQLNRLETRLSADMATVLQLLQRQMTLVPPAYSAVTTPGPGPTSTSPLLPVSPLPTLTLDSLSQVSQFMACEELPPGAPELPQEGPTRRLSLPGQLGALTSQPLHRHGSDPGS
Sequence of Voltage-gated inwardly rectifying potassium channel KCNH2 (Q12809 whole entry): as above
T1 sequence (P43220 whole entry): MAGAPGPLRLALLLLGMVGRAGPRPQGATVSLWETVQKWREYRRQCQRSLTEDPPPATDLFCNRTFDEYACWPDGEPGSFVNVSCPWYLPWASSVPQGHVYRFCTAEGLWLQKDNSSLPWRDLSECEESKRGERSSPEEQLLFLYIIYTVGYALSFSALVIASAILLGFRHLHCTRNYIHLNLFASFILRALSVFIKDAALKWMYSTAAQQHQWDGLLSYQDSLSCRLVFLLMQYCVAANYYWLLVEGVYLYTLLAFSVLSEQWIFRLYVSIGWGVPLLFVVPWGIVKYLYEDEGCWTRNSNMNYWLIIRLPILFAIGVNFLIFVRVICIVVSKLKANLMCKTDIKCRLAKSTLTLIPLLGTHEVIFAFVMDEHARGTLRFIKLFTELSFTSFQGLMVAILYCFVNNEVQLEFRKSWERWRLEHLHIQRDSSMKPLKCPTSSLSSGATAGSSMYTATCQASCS
Sequence of Glucagon receptor (Homo sapiens) (P47871 whole entry): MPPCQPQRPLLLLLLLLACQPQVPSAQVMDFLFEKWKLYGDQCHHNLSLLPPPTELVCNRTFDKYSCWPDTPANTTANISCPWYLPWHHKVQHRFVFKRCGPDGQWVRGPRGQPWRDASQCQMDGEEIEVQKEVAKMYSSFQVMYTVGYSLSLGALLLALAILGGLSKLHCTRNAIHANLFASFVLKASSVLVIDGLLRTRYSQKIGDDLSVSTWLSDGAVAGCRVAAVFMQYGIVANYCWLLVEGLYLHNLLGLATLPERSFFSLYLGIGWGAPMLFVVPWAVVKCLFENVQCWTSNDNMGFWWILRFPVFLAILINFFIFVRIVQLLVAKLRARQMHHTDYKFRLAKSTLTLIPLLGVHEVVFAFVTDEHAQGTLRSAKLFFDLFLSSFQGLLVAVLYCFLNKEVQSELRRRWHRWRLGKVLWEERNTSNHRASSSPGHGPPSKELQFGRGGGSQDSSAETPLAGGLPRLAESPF

SMILES	EC50 [1] [nM]	half-life at 1 µM [2] [h]	half-life at 1 µM [3] [h]	half-life at 1 µM [4] [h]	CLH [5] [mL/min/g]	CLH [6] [mL/min/g]	CLH [7] [mL/min/g]	inhibition at 40 µM (hERG (KCNH2) [10]) [%]	IC50 [28] [nM]	further results
CC1CN(c2cccc(OCc3ccc(C#N)cc3F)n2)C=NN1Cc1nc2ccc(C(=O)O)cc2n1C[C@@H]1CCO1 (stereo partly specified)	0.6									
N#Cc1ccc(COc2cccc(OC3CCN(Cc4nc5ccc(C(=O)O)cc5n4C[C@@H]4CCO4)CC3)n2)c(F)c1	0.7									
O=C(O)c1cc(F)c2nc(CN3CCN(c4cccc(OCc5ccc(Cl)c6cc(F)oc56)n4)C=N3)n(C[C@@H]3CCO3)c2c1		2.77	1.72	1.58	22	21	13			
COc1cc(N)c(Cl)cc1C(=O)N[C@H]1CCN(CCCOc2ccc(F)cc2)C[C@H]1OC [REL-CISAPRIDE]										inhibition at 3 µM (hERG (KCNH2) [8]): 92%
N#Cc1ccc(COc2cccc(C3CCN(Cc4nc5ccc(C(=O)O)cc5n4C[C@@H]4CCO4)CC3)n2)c(F)c1 [DANUGLIPRON]		6.92	2.8	2.72	13	13	5	90		Activity [9]: inactive; Activity (Mus musculus [11]): Active; Activity (Mus musculus [12]): Active
COc1cc(C(F)(F)F)ccc1COc1cccc(N2C=NN(Cc3nc4c(F)cc(C(=O)O)cc4n3C[C@@H]3CCO3)CC2)n1	0.006	2.87	1.28	1.25	28	27	12	20	> 40000	EC50 [13]: 168 nM; Ratio EC50 [14]: 10; Activity [9]: inactive; Activity [15]: inactive; EC50 [16]: 136 nM; AUC(0-t) at 24 h [17]: 70 ng·h/mL; Papp A→B at 1.583 h, 10 µM [18]: 0.57 ×10⁻⁶ cm/s; Activity [19]: inactive; Ratio EC50 [20]: 10; EC50 [21]: 175 nM; Tmax [22]: 0.25 h; half-life [23]: 1.05 h; Activity (Mus musculus [11]): Active; concentration at 1 h [24]: 132 ng/mL; Cmax [25]: 130 ng/mL; concentration at 4 h [26]: 35 ng/mL; Activity [27]: inactive; Activity (Mus musculus [29]): Active; Ratio EC50 [30]: 10; Activity (Mus musculus [12]): Active
COc1cc(C#N)ccc1COc1cccc(N2C=NN(Cc3nc4c(F)cc(C(=O)O)cc4n3C[C@@H]3CCO3)CC2)n1		5.45	3.03	2.23	16	12	6	50	> 40000	Papp A→B at 1.583 h, 10 µM [18]: 0.19 ×10⁻⁶ cm/s; concentration at 1 h [24]: 12 ng/mL; concentration at 4 h [26]: 3 ng/mL
N#Cc1ccc(COc2cccc(N3C=NN(Cc4nc5ccc(C(=O)O)cc5n4C[C@@H]4CCO4)CC3)n2)c(F)c1								48	> 40000	

From ChEMBL document CHEMBL5338823, “Discovery of Novel 5,6-Dihydro-1,2,4-triazine Derivatives as Efficacious Glucagon-Like Peptide-1 Receptor Agonists” (J Med Chem, 2023)
